≈ marks a conversion by molar mass, not a printed value. Where “and” joins values, the source holds several entries; their conditions need not be identical. Equal entries are not always repeated. Where two headings read alike, the source gives them in different places.
Key:
[1] = Transport across Caco 2 cell monolayer; format: in vitro ADME; details: human, direction ab (apical to basal), 180 min incubation
[2] = Solubility in water or FaSSIF-V2 medium (Example 8, HPLC)
Method: The mobile phase consists of mobile phase (A): 1.13 g sodium dihydrogen phosphate and 2.5 g sodium acetate are dissolved in 1000 mL purified water. The pH is afterwards adjusted with acetic acid (100%) to 4.8. and mobile phase (B): 1 part mobile phase A is mixed with 4 parts of methanol for chromatography. The flow rate was 1.0 mL/min, injection volume 5 μL and detection wavelengths 320 nm (HP DAD series 1100). Run time is 10 min. Quantitation was performed using external standard methodology. The assay method has been validated with respect to selectivity, repeatability and linearity. Samples are prepared with dilute ammonia R3 PhEur.
The saturated solutions were filtrated using centrifuge filters (Nylon, […]) and the clear supernatants were respectively injected either directly or after dilution with dilute ammonia R3 PhEur.

[3] = Pharmacokinetics of sulfasalazine in rat, oral administration; format: in vivo, male Wistar (Hannover) rats; details: 60 mg/kg
Method: (§1) In accordance with Swedish legislations for preclinical in vivo studies in rodents and following evaluation and approval of the experimental procedures the local ethical committee (M388-12), following acclimatization to the housing conditions for a minimum of 7 days after arrival, male Wistar (Hannover) rats (Taconic, Denmark), average weight 180-200 g; average age 8-10 weeks, were treated with test items (see Table 2); 12-16 h prior to dosing all food except for an amount equivalent to a half day consumption was removed. The test items were administrated using a soft gavage tube (p.o.) or by injecting the test item in the tail vein (i.v). The volume given was 10 mL/kg (p.o.) or 1 mL/kg (i.v.). Before i.v administration the rats were anesthetized using isoflurane. The rats were conscious during sample collection and the blood was taken from the sub-lingual vein. Blood samples were collected from each rat over a period of up to 24 h. At each time point two aliquots of 50 μL each was added to a vial containing 150 μL of sterile water. The samples were mixed immediately and stored in −18° C. until preparation for bioanalysis commenced. All formulations were prepared on the same day that dosing took place. The body weight of the rat was recorded before dosing. The weight of the syringe was recorded before and after administration to allow calculation of the actual amount of test sample delivered. The actual doses were used during the evaluation of the data.
(§2) The plasma levels of sulfasalazine were determined using LCMS/MS in mrm (multiple reaction monitoring) mode.
(§3) Samples and standards were injected by a HTC PAL from CTC analytics into an LC system from Shimadzu consisting of a high pressure gradient system of two LC-10 AD pumps controlled by a SCL-10A controller from Shimadzu. The samples were separated using reverse-phase chromatography with gradient elution at a flow rate of 0.8 mL/min. Mobile phases were A:94.9/5/0.1 water/acetonitrile/formic acid and B:[…] water/acetonitrile/formic acid. Gradient started at 0% B and increased linearly to 100% B in 4 minutes, 100% B was kept for 0.5 minutes and then the system returned to 0% B in 0.1 minutes. The system was equilibrated for 1.4 minutes until the total run time of 6 minutes. The eluent was analyzed by a Quattro Ultima from Micromass equipped with an electrospray ion source. Data was collected and calibrations were calculated by MassLynx 4.0 software. […] The eluent was ionized by negative ion electrospray and the mrm transition from 397 to 197 m/z was monitored.
The diluted blood sample (50 μL blood, 150 μL water) was thawed and mixed. 400 μL of Acetonitrile, to precipitate the protein was added and mixed again. The sample was centrifuged at 5,000 g for 5 minutes. 100 μL of the supernatant was transferred to a 300 μL glass vial and 100 μL of water was added to reduce the acetonitrile concentration.
Positive and negative mode MS/MS was employed for sulfasalazine. The concentration of the standard curve was in the range from 5 nM to 15625 nM. Samples with analyte concentrations above the upper limit of quantification were diluted with matrix to reach within the assay range. A non-compartmental analysis (NCA) was performed using the Phoenix WinNonLin analysis tool.

[4] = cited from earlier work
[5] = Solubility in de-ionized water (HPLC); details: 24 °C, thermodynamic from solid
Method: The flow rate was 1.0 mL/min, injection volume 5 μL and detection wavelengths 358 nm (for assay) and 260 nm (for chromatographic purity). Quantitation was performed using external standard methodology. The assay method has been validated with respect to selectivity, repeatability and linearity.

[6] = cited from earlier work; remark: listed apart in the source
[7] = tested on: binding of TNF-alpha to its receptor; details: 125I-TNF-alpha displacement; cited from earlier work
[8] = design: species or system male Wistar (Hannover) rats; details: rat, in vivo, iv
Method: as §1, §2
as §3, with “monitored. […]” for “monitored.”
Positive and negative mode MS/MS was employed for sulfasalazine. […] Samples with analyte concentrations above the upper limit of quantification were diluted with matrix to reach within the assay range. […]

[9] = Gravimetric vapour sorption (GVS), hygroscopicity; format: physicochemical; details: 25° C.
Method: Gravimetric vapour sorption (GVS) was used to determine the hygrocopicity of the samples: experiments were performed at 25° C. using a DVS 1 instrument from SMS Ltd to record adsorption-desorption isotherms using different methods, the main features being: a single sorption/desorption cycle from 0 to 80% RH in 10% RH steps with a dm/dt trigger value of 0.002% (dm/dt=change in mass with time—when the balance stability is within this value the next step is automatically started, however, if those conditions are not achieved there is a default maximum time for each step of 6 hours). The sample amount used was 1-3 mg.

[10] = male, Wistar (Hannover), whole blood

In the case of `O=C(O)c1cc(/N=N/c2ccc(S(=O)(=O)Nc3ccccn3)cc2)ccc1O` [sulfasalazine, 2-hydroxy-5-[2-[4-[(2-pyridinylamino)sulfonyl]phenyl]diazenyl]-benzoic acid], the Papp A→B at 180 min, 50 μg/mL ([1]; 50 μg/mL) is reported as 1.39 ×10⁻⁶ cm/s, the Papp A→B at 180 min, 200 μg/mL ([1]; 200 μg/mL) is reported as 1.16 ×10⁻⁶ cm/s and the Solubility ([2]; FaSSIF-V2, room temperature (20-25° C.), saturated solution) is reported as 780 µg/mL (≈ 1960 µM). For the same compound, the solubility at 24 h ([2]; water, pH 5.9, water, thermodynamic from solid) was 60 µg/mL (≈ 151 µM), the F ([3]; male, Wistar (Hannover), in vivo) was 2.5% and the Cmax [3, 10] was 700 ± 110 nM. For the same compound, the Tmax [3, 10] was 0.72 ± 0.57 h, the AUC ([3]; male, Wistar (Hannover), whole blood, p.o., read-out: AUC0.1, 5 h obs) was 0.81 ± 0.13 µM·h and the AUC ([3]; male, Wistar (Hannover), whole blood, p.o., read-out: AUCall) was 2.81 ± 0.41 µM·h. The half-life ([3]; male, Wistar (Hannover), whole blood, p.o.) was 2 ± 0.5 h, the “solubility, United States Pharmacopoeia class practically insoluble” value ([4]; USP classification) was under 100 µg/mL and the “solubility in de-ionized water” value ([4]; de-ionized water at 24° C., literature value) was 30 µg/mL and 31 µg/mL. For the same compound, the solubility in water ([4]; water) was “less than 5 mg/100 ml”, the Solubility [5] was 60 µg/mL (≈ 151 µM) and the half-life ([6]; intravenously administered) was “approximately 7.6±3.6 hours”. For the same compound, the “time of median peak concentration” value ([6]; man, oral) was 6 h and the “binding of TNF-alpha to its receptor” value [7] was “inhibits”.

With `CNCC(O)C(O)C(O)C(O)CO.O=C(O)c1cc(N=Nc2ccc(S(=O)(=O)Nc3ccccn3)cc2)ccc1O` [Form A meglumine salt] the Solubility ([2]; pH 6.8) was 60300 µg/mL, the F ([3]; in vivo) was 3.8% and the T1/2 ([3]; in vivo) was 1.9 ± 0.5 h. The AUCinf obs ([8]; 1 mg/kg) was 1,661 ± 191 h*nM, the T1/2 ([8]; 1 mg/kg) was 1.2 h and the AUCinf obs ([8]; 5 mg/kg) was 11,889 ± 735 h*nM. For the same compound, the T1/2 ([8]; 5 mg/kg) was 1.3 h, the “water vapor uptake (GVS)” value ([9]; 30% RH, listed as Example 1) was under 0.4 % w/w and the “water vapor uptake (GVS)” value ([9]; 30% RH, listed as Example 2) was 0.4 % w/w. The “water vapor uptake (GVS)” value ([9]; 80% RH, listed as Example 1) was under 0.9 % w/w and the “water vapor uptake (GVS)” value ([9]; 80% RH, listed as Example 2) was 1.1 % w/w.

In the case of `CCNCC.O=C(O)c1cc(N=Nc2ccc(S(=O)(=O)Nc3ccccn3)cc2)ccc1O` [Form A diethylamine salt, Diethylamine 2-hydroxy-5-[2-[4-[(2-pyridinylamino)sulfonyl]phenyl]diazenyl]-benzoate], the “water vapor uptake (GVS)” value ([9]; 30% RH) is reported as 0.3 % w/w and the “water vapor uptake (GVS)” value ([9]; 80% RH) is reported as 0.5 % w/w.

For `Nc1ccc(S(=O)(=O)Nc2ccccn2)cc1` [sulfapyridine], the systemic bioavailability ([6]; metabolite formed from non-absorbed sulfasalazine by gut flora) is listed as “about 60%”.

Reference: patent US12128037B2 (priority 2017, dated 2024)
